Measured values taken from US20250381242A1 (INVAIO SCIENCES, INC., priority 2024, published 2025).
No end group written: not given here.

Key:
A. tumefaciens = conditions: 24 h, 10 μM
E. amylovora = conditions: 24 h, 10 μM
E. coli = test: Bacterial growth inhibition by OD600 absorbance, E. coli; assay type: cell-based, E. coli (DH5-alpha); conditions: peptide 10 μM, 24 hours at 37° C., OD 600 nm
Experimental: (§1) Antimicrobial activity of antimicrobial peptides was tested against the agricultural microbial pests A. tumefaciens, E. amylovora, E. coli, and X. citri, using OD absorbance measurement to detect bacterial growth.
(§2) Antimicrobial peptides were synthesized using solid phase peptide synthesis method and resuspended in 10% DMSO to a 1 mM stock concentration. The stock solution was aliquoted in cryovials and stored at −80° C.
(§3) An aliquot of 198 μl of the bacterial culture was added to each well in a 96-well plate and 2 μl of a 1 mM peptide stock solution was added to each well, for a final treatment concentration of 10 μM of a given peptide. Media only wells were included to control for contamination. The positive controls were 50 μg/ml oxytetracycline hydrochloride and 500 μg/ml streptomycin sulfate. A 0.1% DMSO treatment was included as a negative control.
(§4) An initial absorbance reading of the bacterial suspensions was taken at 600 nm. Then, the bacteria were grown in an incubator at 30° C. (A. tumefaciens, E. amylovora, X. citri) or 37° C. (E. coli) for 24 hours, after which the final absorbance reading was measured. Using the initial and final absorbance reading compared to negative and positive controls, the percent inhibition of the bacterial strain by given peptide treatment was determined.

X. citri = test: Bacterial growth inhibition by OD600 absorbance, X. citri; assay type: cell-based, X. citri subsp. citri (ATCC 49118); conditions: peptide 10 μM, 24 hours at 30° C., OD 600 nm
Experimental: as §1, §2, §3, §4

L. crescens = conditions: 10 μM

INLKKLAARIKKKI [compound 112]
growth inhibition, A. tumefaciens (A. tumefaciens): <90%
growth inhibition, E. amylovora (E. amylovora): <90%
growth inhibition, E. coli (E. coli): <90%
growth inhibition, X. citri (X. citri): 100.00%

INWKKIKKKVAGML [compound 108]
growth inhibition, A. tumefaciens (A. tumefaciens): <90%
growth inhibition, E. amylovora (E. amylovora): 95.63%
growth inhibition, E. coli (E. coli): <90%
growth inhibition, X. citri (X. citri): 100.00%

INWLKIAKKVKGML [compound 111]
growth inhibition, A. tumefaciens (A. tumefaciens): <90%
growth inhibition, E. amylovora (E. amylovora): 100.00%
growth inhibition, E. coli (E. coli): <90%
growth inhibition, X. citri (X. citri): 100.00%

IRIKIRIKIRIK [compound 123]
growth inhibition, A. tumefaciens (A. tumefaciens): <90%
growth inhibition, E. amylovora (E. amylovora): <90%
growth inhibition, E. coli (E. coli): <90%
growth inhibition, X. citri (X. citri): <90%

IRVKIRVKIRVK [compound 128]
growth inhibition, A. tumefaciens (A. tumefaciens): 97.32%
growth inhibition, E. amylovora (E. amylovora): 99.30%
growth inhibition, E. coli (E. coli): 100.00%
growth inhibition, X. citri (X. citri): <90%

IWSFLIKAATKLLPSLFGGGKKDS [SEQ ID NO: 39]
growth inhibition, L. crescens (L. crescens): greater than 90%

KIKWILKYWKWS [compound 106]
growth inhibition, A. tumefaciens (A. tumefaciens): <90%
growth inhibition, E. amylovora (E. amylovora): <90%
growth inhibition, E. coli (E. coli): <90%
growth inhibition, X. citri (X. citri): <90%

KKAAAAAAAAAAAAWAAAAAAKKKK [compound 70]
growth inhibition, A. tumefaciens (A. tumefaciens): <90%
growth inhibition, E. amylovora (E. amylovora): <90%
growth inhibition, E. coli (E. coli): <90%
growth inhibition, X. citri (X. citri): <90%

KKFLHSAKKWLKAFVKLFKNW [SEQ ID NO: 33]
growth inhibition, A. tumefaciens (A. tumefaciens): greater than 90%
growth inhibition, L. crescens (L. crescens): greater than 90%

KKIGIWIGIKK [compound 141]
growth inhibition, A. tumefaciens (A. tumefaciens): <90%
growth inhibition, E. amylovora (E. amylovora): <90%
growth inhibition, E. coli (E. coli): <90%
growth inhibition, X. citri (X. citri): <90%

KKKKKKAAAFAAAAAFAAWAAFAAA [compound 51]
growth inhibition, A. tumefaciens (A. tumefaciens): <90%
growth inhibition, E. amylovora (E. amylovora): <90%
growth inhibition, E. coli (E. coli): <90%
growth inhibition, X. citri (X. citri): <90%

KKKKWKLFKKIGIGKFL [compound 75]
growth inhibition, A. tumefaciens (A. tumefaciens): <90%
growth inhibition, E. amylovora (E. amylovora): 100.00%
growth inhibition, E. coli (E. coli): <90%
growth inhibition, X. citri (X. citri): 100.00%

KKLLKLKLKWKK [compound 121]
growth inhibition, A. tumefaciens (A. tumefaciens): <90%
growth inhibition, E. amylovora (E. amylovora): <90%
growth inhibition, E. coli (E. coli): <90%
growth inhibition, X. citri (X. citri): 100.00%

KKLTLWLTLKK [compound 140]
growth inhibition, A. tumefaciens (A. tumefaciens): <90%
growth inhibition, E. amylovora (E. amylovora): <90%
growth inhibition, E. coli (E. coli): <90%
growth inhibition, X. citri (X. citri): <90%

KKPLLKKLLKKL [compound 133]
growth inhibition, A. tumefaciens (A. tumefaciens): <90%
growth inhibition, E. amylovora (E. amylovora): <90%
growth inhibition, E. coli (E. coli): <90%
growth inhibition, X. citri (X. citri): <90%

KKVVFKVKFK [compound 142]
growth inhibition, A. tumefaciens (A. tumefaciens): <90%
growth inhibition, E. amylovora (E. amylovora): <90%
growth inhibition, E. coli (E. coli): <90%
growth inhibition, X. citri (X. citri): <90%

KKWRKWLAKKKKK [compound 101]
growth inhibition, A. tumefaciens (A. tumefaciens): <90%
growth inhibition, E. amylovora (E. amylovora): <90%
growth inhibition, E. coli (E. coli): <90%
growth inhibition, X. citri (X. citri): <90%

KLKKIWWIKVKK [compound 116]
growth inhibition, A. tumefaciens (A. tumefaciens): <90%
growth inhibition, E. amylovora (E. amylovora): <90%
growth inhibition, E. coli (E. coli): <90%
growth inhibition, X. citri (X. citri): <90%

KLKKLLKKWLKLLKKLLK [compound 68]
growth inhibition, A. tumefaciens (A. tumefaciens): <90%
growth inhibition, E. amylovora (E. amylovora): <90%
growth inhibition, E. coli (E. coli): 100.00%
growth inhibition, X. citri (X. citri): <90%

KLLKQWPIGKLLKKLLKKLLK [compound 42]
growth inhibition, A. tumefaciens (A. tumefaciens): 100.00%
growth inhibition, E. amylovora (E. amylovora): <90%
growth inhibition, E. coli (E. coli): 100.00%
growth inhibition, X. citri (X. citri): 100.00%

KLLLKWKLKLLK [compound 126]
growth inhibition, A. tumefaciens (A. tumefaciens): <90%
growth inhibition, E. amylovora (E. amylovora): <90%
growth inhibition, E. coli (E. coli): <90%
growth inhibition, X. citri (X. citri): <90%

KLRKLFRKLLKLIRKLLR [compound 65]
growth inhibition, A. tumefaciens (A. tumefaciens): <90%
growth inhibition, E. amylovora (E. amylovora): <90%
growth inhibition, E. coli (E. coli): 95.59%
growth inhibition, X. citri (X. citri): <90%

KRIVARIKAFLR [compound 130]
growth inhibition, A. tumefaciens (A. tumefaciens): <90%
growth inhibition, E. amylovora (E. amylovora): 100.00%
growth inhibition, E. coli (E. coli): <90%
growth inhibition, X. citri (X. citri): <90%

KVVKQWPIGKVVKKVVKKVVK [compound 58]
growth inhibition, A. tumefaciens (A. tumefaciens): <90%
growth inhibition, E. amylovora (E. amylovora): <90%
growth inhibition, E. coli (E. coli): <90%
growth inhibition, X. citri (X. citri): <90%

KWKLFKKIGPGKFLHSAKKF [compound 60]
growth inhibition, A. tumefaciens (A. tumefaciens): <90%
growth inhibition, E. amylovora (E. amylovora): <90%
growth inhibition, E. coli (E. coli): <90%
growth inhibition, X. citri (X. citri): <90%

KWKLFKKIPLAKKF [compound 100]
growth inhibition, A. tumefaciens (A. tumefaciens): <90%
growth inhibition, E. amylovora (E. amylovora): <90%
growth inhibition, E. coli (E. coli): <90%
growth inhibition, X. citri (X. citri): <90%

KWKSFLKTFKSAKKTSLHTALKAISS [compound 26]
growth inhibition, A. tumefaciens (A. tumefaciens): <90%
growth inhibition, E. amylovora (E. amylovora): <90%
growth inhibition, E. coli (E. coli): <90%
growth inhibition, X. citri (X. citri): <90%

KWKSFLKTLKSPVKTVFYTALKPISS [compound 22]
growth inhibition, A. tumefaciens (A. tumefaciens): 100.00%
growth inhibition, E. amylovora (E. amylovora): 100.00%
growth inhibition, E. coli (E. coli): 100.00%
growth inhibition, X. citri (X. citri): 100.00%

KWLKKWLKWLKK [compound 102]
growth inhibition, A. tumefaciens (A. tumefaciens): 100.00%
growth inhibition, E. amylovora (E. amylovora): 100.00%
growth inhibition, E. coli (E. coli): 100.00%
growth inhibition, X. citri (X. citri): <90%

KWLLKLKLKLLK [compound 125]
growth inhibition, A. tumefaciens (A. tumefaciens): <90%
growth inhibition, E. amylovora (E. amylovora): <90%
growth inhibition, E. coli (E. coli): <90%
growth inhibition, X. citri (X. citri): <90%

LKKWWKTSKGLLGGLLGKVTSVIK [compound 34]
growth inhibition, A. tumefaciens (A. tumefaciens): 100.00%
growth inhibition, E. amylovora (E. amylovora): 100.00%
growth inhibition, E. coli (E. coli): 100.00%
growth inhibition, X. citri (X. citri): 100.00%

MQFITDLIKKAVDFIKGLFGNK [compound 43]
growth inhibition, A. tumefaciens (A. tumefaciens): <90%
growth inhibition, E. amylovora (E. amylovora): <90%
growth inhibition, E. coli (E. coli): 94.72%
growth inhibition, X. citri (X. citri): <90%

NAGSLLSGWG [compound 144]
growth inhibition, A. tumefaciens (A. tumefaciens): <90%
growth inhibition, E. amylovora (E. amylovora): <90%
growth inhibition, E. coli (E. coli): <90%
growth inhibition, X. citri (X. citri): <90%

NKVKEWIKYLKSLFS [compound 96]
growth inhibition, A. tumefaciens (A. tumefaciens): 100.00%
growth inhibition, E. amylovora (E. amylovora): 100.00%
growth inhibition, E. coli (E. coli): <90%
growth inhibition, X. citri (X. citri): <90%

RLSRIVVIRVSR [compound 132]
growth inhibition, A. tumefaciens (A. tumefaciens): <90%
growth inhibition, E. amylovora (E. amylovora): <90%
growth inhibition, E. coli (E. coli): <90%
growth inhibition, X. citri (X. citri): <90%

SWLSKTAKKLENSAKKRISEGIAIAIQGGPR [compound 11]
growth inhibition, A. tumefaciens (A. tumefaciens): 99.35%
growth inhibition, E. amylovora (E. amylovora): 100.00%
growth inhibition, E. coli (E. coli): 100.00%
growth inhibition, X. citri (X. citri): 100.00%

VKLVYPLKVKLYP [compound 119]
growth inhibition, A. tumefaciens (A. tumefaciens): <90%
growth inhibition, E. amylovora (E. amylovora): <90%
growth inhibition, E. coli (E. coli): <90%
growth inhibition, X. citri (X. citri): <90%

VKLYPVKLYP [compound 143]
growth inhibition, A. tumefaciens (A. tumefaciens): <90%
growth inhibition, E. amylovora (E. amylovora): <90%
growth inhibition, E. coli (E. coli): <90%
growth inhibition, X. citri (X. citri): <90%

VRLRIRVRVIRK [compound 118]
growth inhibition, A. tumefaciens (A. tumefaciens): 100.00%
growth inhibition, E. amylovora (E. amylovora): 100.00%
growth inhibition, E. coli (E. coli): 100.00%
growth inhibition, X. citri (X. citri): 100.00%

VRVKVRVKVRVK [compound 131]
growth inhibition, A. tumefaciens (A. tumefaciens): <90%
growth inhibition, E. amylovora (E. amylovora): 100.00%
growth inhibition, E. coli (E. coli): 99.54%
growth inhibition, X. citri (X. citri): <90%

WKIKWKIKWKIK [compound 105]
growth inhibition, A. tumefaciens (A. tumefaciens): <90%
growth inhibition, E. amylovora (E. amylovora): <90%
growth inhibition, E. coli (E. coli): <90%
growth inhibition, X. citri (X. citri): <90%

YSLQMGATAIKQVKKLFKKKGG [compound 56]
growth inhibition, A. tumefaciens (A. tumefaciens): <90%
growth inhibition, E. amylovora (E. amylovora): <90%
growth inhibition, E. coli (E. coli): <90%
growth inhibition, X. citri (X. citri): <90%
